Test results: patent US11091501B2, “Heterocyclic compounds as RSV inhibitors” (Enanta Pharmaceuticals, Inc., priority 2017, dated 2021)

System: Human RSV-A (“Long” strain)
Assay: RSV in vitro cytoprotection assay (CPE, ATPlite) in HEp-2 cells
Assay type: cell-based
Details: human respiratory syncytial virus, 96 h; HEp-2 cells, 4-day incubation, ATPlite readout; read-out: Human RSV-A (“Long” strain) EC50
How it was run: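 HEp-2 cells (8,000/well) given 2-fold serial compound dilutions in duplicate, then infected with sucrose-stabilised RSV-A Long stock. After 4 days, cell viability read by ATPlite luminescence, with a parallel uninfected plate for cytotoxicity. EC50 binned A<0.01 μM, B 0.01-0.05 μM, C>0.05 μM.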

SMILES	EC50
Cc1cnc(N2CC3(CCOCC3)C2)c(C(=O)Nc2ccc(C(=O)N3CCc4c(sc(C(=O)Nc5ncc(F)s5)c4F)-c4ccccc43)cc2)c1 [Example 224]	10 to 50 nM
Cc1cnc(N2CC3(CCOCC3)C2)c(C(=O)Nc2ccc(C(=O)N3CCc4cc(C(=O)Nc5ncccc5C(F)(F)F)sc4-c4ccc(F)cc43)cc2)c1 [Example 119]	< 10 nM
O=C(Nc1c(F)cc(F)cc1F)c1cc2c(s1)-c1c(cc(F)c(F)c1F)N(C(=O)c1ccc(NC(=O)c3cccnc3N3CC4(CCOCC4)C3)cc1)CC2 [Example 79]	10 to 50 nM
O=C(Nc1c(F)cccc1F)c1cc2c(s1)-c1cc(C(F)(F)F)ccc1N(C(=O)c1ccc(NC(=O)c3cccnc3N3CC4(CCOCC4)C3)cc1)CC2 [Example 87]	10 to 50 nM
Cc1cnc(N2CC3(CCOCC3)C2)c(C(=O)Nc2ccc(C(=O)N3CCc4cc(C(=O)Nc5ncns5)sc4-c4ccc(F)cc43)cc2)c1 [Example 128]	10 to 50 nM
O=C(Nc1ncccc1Cl)c1cc2c(s1)-c1ccc(F)cc1N(C(=O)c1ccc(NC(=O)c3cc4c(nc3N3CC5(CCOCC5)C3)CCC4)cc1)CC2 [Example 140]	< 10 nM
Cc1cnc(N2CC3(CCOCC3)C2)c(C(=O)Nc2ccc(C(=O)N3CCc4cc(NC(=O)c5c(C)cccc5C)sc4-c4ccccc43)cc2)c1 [Example 286]	10 to 50 nM
Cc1cnc(N2CC3(CCOCC3)C2)c(C(=O)Nc2ccc(C(=O)N3CCc4c(sc(C(=O)Nc5ccc(F)cc5F)c4F)-c4ccccc43)cc2)c1 [Example 209]	< 10 nM
Cc1ccc(C(=O)Nc2ccc(C(=O)N3CCc4cc(NC(=O)OCC(F)(F)F)sc4-c4ccccc43)cc2)c(N2CC3(CCOCC3)C2)n1 [Example 301]	10 to 50 nM
Cc1cnc(N2CC3(CCOCC3)C2)c(C(=O)Nc2ccc(C(=O)N3CCc4cc(-c5nc6ccccc6[nH]5)oc4-c4ccc(F)cc43)cc2)c1 [Example 243]	< 10 nM
O=C(Nc1ccc(C(=O)N2CCc3cc(-c4nc5cc(F)c(F)cc5[nH]4)sc3-c3ccc(F)cc32)cc1)c1cccnc1N1CC2(CCOCC2)C1 [Example 41]	> 50 nM
Cc1cnc(N2CC3(CCOCC3)C2)c(C(=O)Nc2ccc(C(=O)N3CCc4c(sc(-c5nc6cccc(F)c6[nH]5)c4F)-c4ccccc43)cc2)c1 [Example 206]	< 10 nM
Cc1cnc(N2CC3(CCOCC3)C2)c(C(=O)Nc2ccc(C(=O)N3CCc4cc(-c5ncc(C)s5)sc4-c4ccc(F)cc43)cc2)c1 [Example 151]	< 10 nM
Cc1ccc(C(=O)Nc2ccc(C(=O)N3CCc4cc(C(=O)Nc5ncccc5F)sc4-c4ccc(F)cc43)cc2)c(N2CC3(CCOCC3)C2)n1 [Example 115]	< 10 nM
Cc1cnc(N2CC3(CCOCC3)C2)c(C(=O)Nc2ccc(C(=O)N3CCc4c(sc(C(=O)Nc5ncccc5C)c4F)-c4ccccc43)cc2)c1 [Example 226]	< 10 nM
Cc1cnc(N2CC3(CCOCC3)C2)c(C(=O)Nc2ccc(C(=O)N3CCc4cc(C(=O)NC5CCS(=O)(=O)CC5)sc4-c4ccc(F)cc43)cc2)c1 [Example 122]	> 50 nM
Cc1cnc(N2CC3(CCOCC3)C2)c(C(=O)Nc2ccc(C(=O)N3CCc4cc(C(=O)Nc5cccnn5)sc4-c4ccc(F)cc43)cc2)c1 [Example 126]	< 10 nM
CC1(C)CCN(c2ncccc2C(=O)Nc2ccc(C(=O)N3CCc4cc(C(=O)Nc5c(F)cccc5F)sc4-c4ccc(F)cc43)cc2)CCS1(=O)=O [Example 49]	> 50 nM
Cc1cnc(N2CC3(CCOCC3)C2)c(C(=O)Nc2ccc(C(=O)N3CCc4cc(C(=O)NC5CC6CCC5O6)sc4-c4ccc(F)cc43)cc2)c1 (stereo not shown) [Example 123]	< 10 nM
Cc1cc(CNc2ncccc2C(=O)Nc2ccc(C(=O)N3CCc4cc(C(=O)Nc5c(F)cccc5F)sc4-c4ccc(F)cc43)cc2)on1 [Example 56]	> 50 nM

SMILES	EC50
Cc1cnc(N2CC3(CCOCC3)C2)c(C(=O)Nc2ccc(C(=O)N3CCc4cc(-c5cnc6[nH]ncc6c5)sc4-c4ccc(F)cc43)cc2)c1 [Example 179]	< 10 nM
O=C(Nc1c(F)cccc1F)c1cc2c(o1)-c1ccc(F)cc1N(C(=O)c1ccc(NC(=O)c3cccnc3N3CC4(CCOCC4)C3)cc1)CC2 [Example 99]	< 10 nM
Cc1cnc(N2CC3(CCOCC3)C2)c(C(=O)Nc2ccc(C(=O)N3CCc4c(sc(NC(=O)c5ccccc5F)c4F)-c4ccccc43)cc2)c1 [Example 307]	< 10 nM
O=C(Nc1c(F)cccc1F)c1cc2c(s1)-c1ccc(F)cc1N(C(=O)c1ccc(NC(=O)c3cccnc3-c3c[nH]c4ccncc34)cc1)CC2 [Example 64]	> 50 nM
Cc1cnc(N2CC3(CCOCC3)C2)c(C(=O)Nc2ccc(C(=O)N3CCc4cc(-c5cccnn5)sc4-c4ccc(F)cc43)cc2)c1 [Example 190]	< 10 nM
Cc1cnc(N2CC3(CCOCC3)C2)c(C(=O)Nc2ccc(C(=O)N3CCc4cc(C(=O)Nc5c(Cl)cncc5Cl)sc4-c4ccc(F)cc43)cc2)c1 [Example 131]	< 10 nM
Cc1ccc(C(=O)Nc2ccc(C(=O)N3CCc4cc(C(=O)Nc5c(C)cccc5C)sc4-c4ccc(F)cc43)cc2)c(N2CC3(CCOCC3)C2)n1 [Example 116]	< 10 nM
Cc1ccc(C(=O)Nc2ccc(C(=O)N3CCc4cc(C(=O)Nc5c(F)cccc5C(F)(F)F)sc4-c4ccc(F)cc43)cc2)c(N2CC3(CCOCC3)C2)n1 [Example 113]	< 10 nM
CCS(=O)(=O)CCNc1ncccc1C(=O)Nc1ccc(C(=O)N2CCc3cc(C(=O)Nc4c(F)cccc4F)sc3-c3ccc(F)cc32)cc1 [Example 59]	> 50 nM
Cc1cnc(N2CC3(CCOCC3)C2)c(C(=O)Nc2ccc(C(=O)N3CCc4cc(-c5nnc(C)o5)sc4-c4cc(F)c(F)cc43)cc2)c1 [Example 193]	< 10 nM
Cc1ccc(C(=O)Nc2ccc(C(=O)N3CCc4sc(-c5nc6ccccc6[nH]5)cc4-c4ccccc43)cc2)c(N2CC3(CCOCC3)C2)n1 [Example 266]	< 10 nM
O=C(Nc1c(F)cc(F)cc1F)c1cc2c(s1)-c1cc(F)c(F)cc1N(C(=O)c1ccc(NC(=O)c3cc(F)cnc3N3CC4(CCOCC4)C3)cc1)CC2 [Example 71]	10 to 50 nM
Cc1cnc(N2CC3(CCOCC3)C2)c(C(=O)Nc2ccc(C(=O)N3CCc4cc(C(=O)Nc5c(C)cccc5C)sc4-c4ccc(F)cc43)cc2)c1 [Example 6]	< 10 nM
Cc1cc(C(=O)Nc2ccc(C(=O)N3CCc4c(sc(C(=O)Nc5ncccc5F)c4F)-c4ccccc43)cc2)c(N2CC3(CCOCC3)C2)nc1C [Example 221]	< 10 nM
O=C(Nc1c(F)cc(F)cc1F)c1cc2c(s1)-c1ccc(F)cc1N(C(=O)c1ccc(NC(=O)c3cc4ccccc4nc3N3CC4(CCOCC4)C3)cc1)CC2 [Example 15]	< 10 nM
Cc1cnc(N2CC3(CCOCC3)C2)c(C(=O)Nc2ccc(C(=O)N3CCc4cc(-c5c(F)cncc5F)sc4-c4ccc(F)cc43)cc2)c1 [Example 186]	10 to 50 nM
Cc1cnc(N2CC3(CCOCC3)C2)c(C(=O)Nc2ccc(C(=O)N3CCc4c(sc(C(=O)Nc5c(F)cc(F)cc5F)c4F)-c4ccccc43)cc2)c1 [Example 94]	< 10 nM
Cc1ccc(C(=O)Nc2ccc(C(=O)N3CCc4c(sc(C(=O)Nc5ncccc5F)c4F)-c4ccccc43)cc2)c(N2CC3(CCOCC3)C2)n1 [Example 218]	< 10 nM
Cc1cnc(N2CC3(CCOCC3)C2)c(C(=O)Nc2ccc(C(=O)N3CCc4cc(NC(=O)c5c(F)cccc5Cl)sc4-c4ccccc43)cc2)c1 [Example 282]	< 10 nM
O=C(Nc1ccc(C(=O)N2CCc3nc(-c4nc5ccccc5[nH]4)sc3-c3ccccc32)cc1)c1cccnc1N1CC2(CCOCC2)C1 [Example 107]	10 to 50 nM
